Where “and” joins values, the source holds several entries; their conditions need not be identical. Identical values can stand only once.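 Exposure lasted 48 hours, with cells grown in 96-well plates and compounds tested at five concentrations. GI50 is the concentration that inhibits growth by half. At the TGI there is no net growth.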
system: EKVX NSCLC; assay: NCI tumour cell line growth inhibition, 48 h

Row | Structure (SMILES) | GI50 | TGI
1 | CCOC(=O)n1cc(C2=C(c3ccc(OC)c(OC)c3)COC2=O)c2ccccc21 | 0.0938 µM | > 100 µM
2 | CC(=C(c1ccc(OCCN2CCCCC2)cc1)c1ccc(OCCN2CCCCC2)cc1)c1ccc(Cl)cc1 | 0.433 µM | 0.857 µM
3 | C=C(C)C(=O)O[C@@H]1C[C@@]2(C)O[C@@H]2C[C@H](O)/C(C)=C/[C@H]2OC(=O)C(=C)[C@@H]21 |  | > 100 µM
4 | C=CC(=O)Nc1cc(Nc2nccc(-c3cn(C)c4ccccc34)n2)c(OC)cc1N(C)CCN(C)C | 0.751 µM and 0.2 µM | 4.08 µM and 3.4 µM
5 | CC(=O)OC1(C)N=NC2(CCCCC2)O1 (stereo not given) |  | > 100 µM
6 | C=C1C(=O)O[C@H]2[C@H]1CC/C(CNC(=O)c1cc3ccccc3[nH]1)=C\CC[C@@]1(C)O[C@@H]21 | 2.11 µM | 8.04 µM
7 | Cc1cc2c(cc1C)[n+](=O)c(C(=O)c1ccccc1)c(C(F)F)n2[O-] | 9.43 µM | 44.6 µM
8 | COc1cc2c(cc1OC)C(Cl)C(c1ccc(F)cc1)=C2Cl (stereo not given) |  | 40.7 µM
9 | CN(C)c1ccc(/C=N/NC(=S)Nc2ccccc2)cc1 |  | > 100 µM
10 | COc1ccc2ncnc(Nc3ccc(OCc4ccccc4)cc3)c2c1 | 2.25 µM | 12.9 µM
11 | O=C1c2c(F)c(F)c(F)c(F)c2C(=O)N1c1ccc(F)cc1F | 16.8 µM | 35.9 µM
12 | CC(C)[C@@H]1NC(=O)[C@]2(C)CSC(=N2)c2ccnc(c2)CNC(=O)C[C@@H](/C=C/CCS)OC1=O | 0.234 µM | > 100 µM
13 | OC(c1cc(C(F)(F)F)nc2c(C(F)(F)F)cccc12)C1CCCCN1 (stereo not given) | 2.3 µM | 8.63 µM
14 | C/C=C/[C@@H]1O[C@@H]2COC(=O)C2=C[C@@H]1O | 17.5 µM | 36.7 µM

system: HCT-15 colon; assay: NCI tumour cell line growth inhibition, 48 h

Row | Structure (SMILES) | GI50 | TGI
15 | CC[C@@H](c1ccc(O)c(O)c1)[C@@H](CC)c1ccc(O)c(O)c1 | 2.39 µM | 9.41 µM
16 | O=C1OCC2=C1C(c1cccc(Br)c1)c1cc3c(cc1N2CCO)OCCO3 (stereo not given) | 0.0766 µM | > 50 µM
17 | COc1cc(-c2nc3sccn3c2-c2ccnc(NCCNS(=O)(=O)c3ccc(F)cc3)n2)ccc1F | 2.33 µM | > 100 µM
18 | O=C1CSC(=S)N1/N=C/c1ccc(Cl)c([N+](=O)[O-])c1 |  | 42.1 µM
19 | Cn1cc(-c2cc3c(N4CCN(c5ncc([C@@](C)(N)c6ccc(F)cc6)cn5)CC4)ncnn3c2)cn1 | 3.62 µM | > 100 µM
20 | CCCCCCCCCCSC(=N)N (tested in a mixture with another compound) | 2.12 µM | 5.06 µM
21 | CCOc1ccc(NC2=CC(=O)C(=O)c3ccccc32)cc1 |  | 6.72 µM
22 | O=C1c2ccccc2C(=O)c2c(/C=C\N3CCCCC3)ccnc21 |  | 6.41 µM
23 | C=C1C[C@H](O)[C@H](Br)C(C)(C)[C@@]12CCC(C)=C(Cl)C2 | 0.269 µM | 1.27 µM
24 | O=C(NC1CCCCC1)NS(=O)(=O)c1ccc(N2N=C3c4ccccc4CC3C2c2ccc(Cl)cc2)cc1 (stereo not given) | 14.5 µM | 43.7 µM
25 | c1ccc(-c2n(Cc3ccc4ccccc4n3)cc[n+]2Cc2ccc3ccccc3c2)cc1 | 5.21 µM | 17.9 µM
26 | C[C@@H]1CC[C@H]2C(C)(C)[C@H]3C[C@@]12CC[C@@]3(C)O |  | > 100 µM
27 | O=C(Nc1cccc(C(F)(F)F)c1)Nc1cccc(C(F)(F)F)c1 | 0.464 µM | 3.41 µM
28 | CCOC(=O)n1cc(C2=C(c3ccc(OC)c(OC)c3)COC2=O)c2ccccc21 | 0.0408 µM | > 100 µM
29 | CC(=C(c1ccc(OCCN2CCCCC2)cc1)c1ccc(OCCN2CCCCC2)cc1)c1ccc(Cl)cc1 | 0.34 µM | 0.685 µM
30 | C=C(C)C(=O)O[C@@H]1C[C@@]2(C)O[C@@H]2C[C@H](O)/C(C)=C/[C@H]2OC(=O)C(=C)[C@@H]21 |  | > 100 µM
31 | C=CC(=O)Nc1cc(Nc2nccc(-c3cn(C)c4ccccc34)n2)c(OC)cc1N(C)CCN(C)C | 1.61 µM and 1.42 µM | 3.69 µM and 3.27 µM
32 | CC(=O)OC1(C)N=NC2(CCCCC2)O1 (stereo not given) |  | > 100 µM
33 | C=C1C(=O)O[C@H]2[C@H]1CC/C(CNC(=O)c1cc3ccccc3[nH]1)=C\CC[C@@]1(C)O[C@@H]21 | 0.439 µM | 1.72 µM
34 | Cc1cc2c(cc1C)[n+](=O)c(C(=O)c1ccccc1)c(C(F)F)n2[O-] | 6.76 µM | > 100 µM
35 | COc1cc2c(cc1OC)C(Cl)C(c1ccc(F)cc1)=C2Cl (stereo not given) |  | 28.4 µM
36 | CN(C)c1ccc(/C=N/NC(=S)Nc2ccccc2)cc1 |  | > 100 µM
37 | COc1ccc2ncnc(Nc3ccc(OCc4ccccc4)cc3)c2c1 | 5.61 µM | > 25 µM
38 | O=C1c2c(F)c(F)c(F)c(F)c2C(=O)N1c1ccc(F)cc1F | 2.57 µM | 7.43 µM
39 | CC(C)[C@@H]1NC(=O)[C@]2(C)CSC(=N2)c2ccnc(c2)CNC(=O)C[C@@H](/C=C/CCS)OC1=O | 9.1 µM | > 100 µM
40 | OC(c1cc(C(F)(F)F)nc2c(C(F)(F)F)cccc12)C1CCCCN1 (stereo not given) | 3.51 µM | 10.9 µM
41 | C/C=C/[C@@H]1O[C@@H]2COC(=O)C2=C[C@@H]1O | 16.9 µM | 39.8 µM

system: HOP-62 NSCLC; assay: NCI tumour cell line growth inhibition, 48 h

Row | Structure (SMILES) | GI50 | TGI
42 | CC[C@@H](c1ccc(O)c(O)c1)[C@@H](CC)c1ccc(O)c(O)c1 | 17.7 µM | 33 µM
43 | O=C1OCC2=C1C(c1cccc(Br)c1)c1cc3c(cc1N2CCO)OCCO3 (stereo not given) | 0.0891 µM | 18.7 µM
44 | COc1cc(-c2nc3sccn3c2-c2ccnc(NCCNS(=O)(=O)c3ccc(F)cc3)n2)ccc1F | 4.82 µM | > 100 µM
45 | O=C1CSC(=S)N1/N=C/c1ccc(Cl)c([N+](=O)[O-])c1 |  | 86.3 µM
46 | Cn1cc(-c2cc3c(N4CCN(c5ncc([C@@](C)(N)c6ccc(F)cc6)cn5)CC4)ncnn3c2)cn1 | 6.31 µM | > 100 µM
47 | CCCCCCCCCCSC(=N)N (tested in a mixture with another compound) | 11.8 µM | 27.3 µM
48 | CCOc1ccc(NC2=CC(=O)C(=O)c3ccccc32)cc1 |  | 12 µM
49 | O=C1c2ccccc2C(=O)c2c(/C=C\N3CCCCC3)ccnc21 |  | 13.9 µM
50 | C=C1C[C@H](O)[C@H](Br)C(C)(C)[C@@]12CCC(C)=C(Cl)C2 | 0.377 µM | 4.92 µM
51 | O=C(NC1CCCCC1)NS(=O)(=O)c1ccc(N2N=C3c4ccccc4CC3C2c2ccc(Cl)cc2)cc1 (stereo not given) | 15 µM | 30.9 µM
52 | c1ccc(-c2n(Cc3ccc4ccccc4n3)cc[n+]2Cc2ccc3ccccc3c2)cc1 | 2.01 µM | 6.13 µM
53 | C[C@@H]1CC[C@H]2C(C)(C)[C@H]3C[C@@]12CC[C@@]3(C)O |  | > 100 µM
54 | O=C(Nc1cccc(C(F)(F)F)c1)Nc1cccc(C(F)(F)F)c1 | 1.4 µM | 3.64 µM
55 | CCOC(=O)n1cc(C2=C(c3ccc(OC)c(OC)c3)COC2=O)c2ccccc21 | 0.075 µM | > 100 µM
56 | CC(=C(c1ccc(OCCN2CCCCC2)cc1)c1ccc(OCCN2CCCCC2)cc1)c1ccc(Cl)cc1 | 0.439 µM | 0.888 µM
57 | C=C(C)C(=O)O[C@@H]1C[C@@]2(C)O[C@@H]2C[C@H](O)/C(C)=C/[C@H]2OC(=O)C(=C)[C@@H]21 |  | > 100 µM
58 | C=CC(=O)Nc1cc(Nc2nccc(-c3cn(C)c4ccccc34)n2)c(OC)cc1N(C)CCN(C)C | 4.07 µM and 3.58 µM | 18.3 µM and > 10 µM
59 | CC(=O)OC1(C)N=NC2(CCCCC2)O1 (stereo not given) |  | > 100 µM
60 | C=C1C(=O)O[C@H]2[C@H]1CC/C(CNC(=O)c1cc3ccccc3[nH]1)=C\CC[C@@]1(C)O[C@@H]21 | 1.86 µM | 4.37 µM
61 | Cc1cc2c(cc1C)[n+](=O)c(C(=O)c1ccccc1)c(C(F)F)n2[O-] | 26.4 µM | > 100 µM
62 | COc1cc2c(cc1OC)C(Cl)C(c1ccc(F)cc1)=C2Cl (stereo not given) |  | 30.1 µM
63 | CN(C)c1ccc(/C=N/NC(=S)Nc2ccccc2)cc1 |  | > 100 µM
64 | COc1ccc2ncnc(Nc3ccc(OCc4ccccc4)cc3)c2c1 | 10.6 µM | > 25 µM
65 | O=C1c2c(F)c(F)c(F)c(F)c2C(=O)N1c1ccc(F)cc1F | 15.2 µM | 31.4 µM
66 | CC(C)[C@@H]1NC(=O)[C@]2(C)CSC(=N2)c2ccnc(c2)CNC(=O)C[C@@H](/C=C/CCS)OC1=O | 0.0525 µM | 
67 | OC(c1cc(C(F)(F)F)nc2c(C(F)(F)F)cccc12)C1CCCCN1 (stereo not given) | 1.84 µM | 5.13 µM
68 | C/C=C/[C@@H]1O[C@@H]2COC(=O)C2=C[C@@H]1O | 23.5 µM | 43 µM

— PubChem BioAssay (NCI)
